What is called EC50 is the midpoint of the concentration-response curve. A higher EC50 goes with a less potent agent.

The structures appear in SMILES notation. Several values for one entry are separate records, joined by “and”; a condition that tells them apart may be missing. Equal values may be shown once. Read-outs that look alike come from different tables or passages of the source.

Series [1] deals with SUDHL5.
In series [2] the target is SUDHL10. In words: Induction of caspase-3/7 activity (Caspase-Glo 3/7), SUDHL10. The settings on record: caspase-3/7 induction, SUDHL10 cells, 3 h treatment; median. Type of series: cell-based. Summed up:
(§1)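 DLBCL cells treated with compounds for 3 h at 37 °C, then caspase-3/7 activity read by Caspase-Glo 3/7 luminescence. Medium-only background subtracted; EC50 fitted with C0 fixed at 1 and top set to the reference compound's maximal induction.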

The test system of series [3] is SUDHL10. In words: Anti-proliferative effect (CellTiter-Glo, 72 h), SUDHL10. The settings on record: SUDHL10 cells, antiproliferation, 72 h incubation, median, read-out: Antiproli SUDHL10 [M] (median). It counts as cell-based. Summed up: (§2)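 A time zero plate, read with CellTiter-Glo shortly after seeding, served as baseline; compound-treated plates were incubated 72 h at 37 °C and then read identically by luminescence.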

Series [4] has as its system SUDHL5. The series is described as follows: Anti-proliferative effect (CellTiter-Glo, 72 h), SUDHL5. It counts as cell-based. The settings on record: SUDHL5 cells, antiproliferation, median, read-out: Antiproli SUDHL5 [M] (median). The procedure, abridged:
as §2
On the technique in general: ATP-based viability assays read luminescence as a measure of living cells.

The target of series [5] is SUDHL5. The series is described as follows: Induction of caspase-3/7 activity (Caspase-Glo 3/7), SUDHL5. Type of series: cell-based. The settings on record: caspase-3/7 induction, SUDHL5 cells, 3 h treatment; median. Summed up: as §1
For series [6], the target named is MCL-1 (Homo sapiens, UniProt Q07820). In words: Protein-protein interaction assay MCL-1/Noxa BH3 peptide (MCL-1 assay), TR-FRET. It counts as binding. The settings on record: MBP-MCL-1 / Noxa BH3-derived peptide, median. The procedure, abridged:
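TR-FRET, 665/622 nm emission ratio (excitation 330–350 nm), measured MCL-1/Noxa complex formation. 1 nM MBP-MCL-1, 50 mM Tris/HCl pH 7, 0.1% BGG, 2 mM DTT. Incubation 1 h at 22 °C, then overnight at 4 °C. IC50 by 4-parameter regression, normalized to DMSO (0%) and no-MCL-1 (100%) controls.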
(In TR-FRET formats the signal depends on donor and acceptor labels being close together.)

Series [7] relates to SUDHL10.
Series [8] deals with A2780. The series is described as follows: Anti-proliferative effect (CellTiter-Glo, 72 h), A2780. Type of series: cell-based. The settings on record: A2780 cells, median, read-out: IC50 antiproliferation assay A2780 [M] (median). Summed up:
as §2

In series [9] the test system is MV-4-11. The series is described as follows: Anti-proliferative effect (CellTiter-Glo, 72 h), MV-4-11. It counts as cell-based. The settings on record: MV-4-11 cells, median, read-out: IC50 antiproliferation assay MV-4-11 [M] (median). The procedure, abridged: as §2
Series [10] has as its system OPM2. In words: Anti-proliferative effect (CellTiter-Glo, 72 h), OPM2. The settings on record: OPM2 cells, median, read-out: IC50 antiproliferation assay OPM2 [M] (median). It counts as cell-based. Summed up:
as §2

The test system of series [11] is SUDHL10. The series is described as follows: Induction of cytotoxicity (CellTiter-Glo, 5 h), SUDHL10. The settings on record: read-out: Cytotox SUDHL10 [M] (median); SUDHL10 cells, cytotoxicity induction, CellTiter-Glo, 5 h incubation, median.
Series [12] relates to SK-MEL-2. In words: Anti-proliferative effect (CellTiter-Glo, 72 h), SK-MEL-2. Type of series: cell-based. The settings on record: Homo sapiens, SK-MEL-2 cells, median, read-out: IC50 antiproliferation assay SK-MEL-2 [M] (median). The procedure: Assessment of the Anti-Proliferative Effect of Compounds in Different Cell Lines
(§3) The impact of compounds on the proliferation of different cell lines was assessed using the CellTiter-Glo® Luminescent Cell Viability reagent from Promega (G7573). Of note, SUDHL10 and SUDHL5 (DLBCL), NCI-H929 (Multiple Myeloma), A2780 (ovarian carcinoma) as well as MV-4-11(AML) cells are sensitive to MCL-1 inhibition.
(§4) In parallel, cells were plated in a reference (day 0) plate for time zero determination.
(§5) Rim wells were excluded. The cells were incubated for 72 h hours in a humidified incubator at 37° C. The day 0 plate was measured by adding 30 μl/well of CTG solution (CellTiter-Glo® Luminescent Cell Viability reagent, Promega G7573) to time zero wells in the reference plate followed by a 10 minutes incubation and luminescence reading at 0.1 ms, using the PHERAstar FS microplate reader (BMG Labtech).
(§6) After 72 h incubation, the treated plates were measured in the same way as the day 0 plate mentioned above.

Series [13] deals with NCI-H1703. The series is described as follows: Anti-proliferative effect (CellTiter-Glo, 72 h), NCI-H1703. It counts as cell-based. The settings on record: Homo sapiens, NCI-H1703 cells, median, read-out: IC50 antiproliferation assay NCI-H1703 [M] (median). The method, then:
as §3, §4, §5, §6

Series [14] relates to SUDHL5. In words: Induction of cytotoxicity (CellTiter-Glo, 5 h), SUDHL5. The settings on record: read-out: Cytotox SUDHL5 [M] (median); SUDHL5 cells, cytotoxicity induction, CellTiter-Glo, 5 h incubation, median.

Chain of MCL-1 (Q07820 whole entry): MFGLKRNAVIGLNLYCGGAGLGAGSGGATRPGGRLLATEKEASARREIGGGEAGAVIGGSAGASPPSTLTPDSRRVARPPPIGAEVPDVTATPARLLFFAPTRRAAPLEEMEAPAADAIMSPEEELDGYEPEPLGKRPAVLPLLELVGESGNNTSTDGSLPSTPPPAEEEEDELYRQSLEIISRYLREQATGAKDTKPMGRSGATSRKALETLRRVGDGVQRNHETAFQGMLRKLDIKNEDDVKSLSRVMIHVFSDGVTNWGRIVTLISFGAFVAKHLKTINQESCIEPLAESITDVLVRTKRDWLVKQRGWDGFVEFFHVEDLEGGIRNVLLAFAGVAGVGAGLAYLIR

For `CCc1c2c(nn1C)COCCCCn1c(C(=O)O)c(CCCOc3cccc4cc(F)ccc34)c3cccc-2c31` (racemic) [Example 281, (rac)-3-ethyl-7-{3-[(6-fluoronaphthalen-1-yl)oxy]propyl}-2-methyl-2,10,11,12,13,15-hexahydropyrazolo[4′,3′:9,10][1,6]oxazacycloundecino[8,7,6-hi]indole-8-carboxylic Acid], the IC50 in series [1] was 1.85 µM; in [3], 6.99e-06 M; in [4] (72 h incubation) it was 2.48e-06 M; in series [6], 1.63 nM; in [7], 2.58 µM; in series [8] it was 1.39e-05 M. In addition, the IC50 in [9] came out at 4.74e-06 M. The EC50 in [2] came out at 2.78 µM; in series [5], 1.45 µM.

As to `CCc1nn(C)c2c1-c1cccc3c(CCCOc4cccc5cc(C(F)(F)F)ccc45)c(C(=O)O)n(c13)CCCCOC2` (racemic) [Example 313, (rac)-12-ethyl-10-methyl-1-(3-((6-(trifluoromethyl)naphthalen-1-yl)oxy)propyl)-4,5,6,7,9,10-hexahydropyrazolo[4′,3′:9,10][1,6]oxaazacycloundecino[8,7,6-hi]indole-2-carboxylic Acid], the IC50 in [1] came to 30.9 µM; in series [4] (72 h), 7.48e-06 M; in [6] it was 99.9 nM; in [7], 27.1 µM; in [8], 1.05e-05 M; in series [9] it was 2e-05 M. Besides, the EC50 in [2] and in [5] was greater than 33 µM each time.

Regarding `CN1CCCn2c(C(=O)O)c(CCCOc3cccc4ccccc34)c3cccc(c32)-c2c(CCN3CCOCC3)nn(C)c2C1` (single isomer, unassigned; enantiomer 1) [Example 125, 7,9-dimethyl-11-[2-(morpholin-4-yl)ethyl]-1-[3-(naphthalen-1-yloxy)propyl]-4,5,6,7,8,9-hexahydropyrazolo[3′,4′:7,8][1,5]diazecino[9,10,1-hi]indole-2-carboxylic Acid (Enantiomer 1)], the IC50 in series [1] came to 6.3 µM; in series [10], 1.15e-05 M; in series [3], 7.66e-06 M; in series [4] (72 h incubation), 2.53e-06 M; in series [6], 10.8 nM; in series [7] it was 13.9 µM. The IC50 in series [8] is 8.42e-06 M; in series [9] it was 2.02e-06 M. Besides, the EC50 turned out to be 14 µM in series [2] and 6.2 µM in [5].

On to `Cn1nc(CN2CCOCC2)c2c1COCCCCn1c(C(=O)O)c(CCCOc3cccc4ccccc34)c3cccc-2c31` (single isomer, unassigned; enantiomer 1) [Example 136, 1-methyl-3-(morpholin-4-ylmethyl)-7-[3-(naphthalen-1-yloxy)propyl]-1,10,11,12,13,15-hexahydropyrazolo[4′,3′:9,10][1,6]oxazacycloundecino[8,7,6-hi]indole-8-carboxylic Acid (Enantiomer 1)], for which the IC50 in series [1] was greater than 33 µM; in [10], greater than 3.3e-05 M; in [3], 8.9e-06 M; in [6], 22.8 nM; in [7], greater than 33 µM; in series [8], greater than 3.3e-05 M. The EC50 in series [2] and in series [5] was greater than 33 µM in each case.

As for `Cn1nc(CN2CCOCC2)c2c1COCCCn1c(C(=O)O)c(CCCOc3cccc4ccccc34)c3cccc-2c31` (single isomer, unassigned; enantiomer 1) [Example 139, 9-methyl-11-(morpholin-4-ylmethyl)-1-[3-(naphthalen-1-yloxy)propyl]-5,6,8,9-tetrahydro-4H-pyrazolo[4′,3′:8,9][1,5]oxazecino[7,6,5-hi]indole-2-carboxylic Acid (Enantiomer 1)], the IC50 in [1] is greater than 33 µM; in series [10], greater than 3.3e-05 M; in [3], 2.67e-05 M; in [6], 42.2 nM; in series [7], greater than 33 µM; in [8], greater than 3.3e-05 M. Also, the EC50 in series [2] and in series [5] was greater than 33 µM each time.

`CCc1nn(CCN2CCOCC2)c2c1-c1cccc3c(CCCOc4cccc5ccccc45)c(C(=O)O)n(c13)CCCCOC2` (single isomer, unassigned; enantiomer 1) [Example 199, 3-ethyl-1-[2-(morpholin-4-yl)ethyl]-7-[3-(naphthalen-1-yloxy)propyl]-1,10,11,12,13,15-hexahydropyrazolo[4′,3:9,10][1,6]oxazacycloundecino[8,76-hi]indole-8-carboxylic Acid (Enantiomer 1)]: the IC50 in series [11] came out at 2.92e-06 M; in series [12], 2.9e-05 M; in series [3] it was 1.13e-06 M; in series [13] it was 1.46e-05 M; in series [4] (72 h incubation) it was 1.65e-06 M; in series [6], 1.26 nM. Also, the IC50 in series [8] (Homo sapiens, A2780, 72 h) stood at 1.57e-05 M; in [9] (Homo sapiens, MV4-11, 72 h) it was 7.51e-06 M; in [14] it was 9.25e-07 M. The concentration for a half-maximal effect (EC50) in series [2] stood at 3.46 µM; in [5] it was 0.899 µM.

For `CN1CCCn2c(C(=O)O)c(CCCOc3cccc4ccccc34)c3cccc(c32)-c2c(CCN3CCOCC3)nn(C)c2C1` (single isomer, unassigned; enantiomer 2) [Example 126, 7,9-dimethyl-11-[2-(morpholin-4-yl)ethyl]-1-[3-(naphthalen-1-yloxy)propyl]-4,5,6,7,8,9-hexahydropyrazolo[3′,4′:7,8][1,5]diazecino[9,10,1-hi]indole-2-carboxylic Acid (Enantiomer 2)], the IC50 is 27.3 µM in series [1]; greater than 3.3e-05 M in series [10]; 1.51e-05 M in [3]; 1.68e-05 M in series [4] (72 h incubation); 84.5 nM in series [6]; greater than 33 µM in [7]. The IC50 in series [8] worked out at 3.19e-05 M. Besides, the EC50 in [2] is greater than 33 µM; in [5], 27.9 µM.

On to `Cn1nc(CN2CCOCC2)c2c1COCCCn1c(C(=O)O)c(CCCOc3cccc4ccccc34)c3cccc-2c31` (single isomer, unassigned; enantiomer 2) [Example 140, 9-methyl-11-(morpholin-4-ylmethy)-1-[3-(naphthalen-1-yloxy)propyl]-5,6,8,9-tetrahydro-4H-pyrazolo[4′,3′:8,9][1,5]oxazecino[7,6,5-hi]indole-2-carboxylic Acid (Enantiomer 2)], for which the IC50 is 16.7 µM in series [1]; greater than 3.3e-05 M in [10]; 1.79e-05 M in series [3]; 1.17e-05 M in series [4] (72 h incubation); 11.4 nM in [6]; greater than 3.3e-05 M in series [8]. For the same compound, the IC50 in [9] came out at 2.27e-05 M. Also, the EC50 was 20.3 µM and > 33 µM in series [2]; 14.9 µM in [5].

In the case of `Cc1c2c(nn1CC(F)(F)F)COCCCCn1c(C(=O)O)c(CCCOc3cccc4ccccc34)c3cccc-2c31` [Example 242, 3-methyl-7-[3-(naphthalen-1-yloxy)propyl]-2-(2,2,2-trifluoroethyl)-2,10,11,12,13,15-hexahydropyrazolo[4′,3′:9,10][1,6]oxazacycloundecino[8,7,6-hi]indole-8-carboxylic Acid], the IC50 was greater than 33 µM in series [1]; 2.74e-06 M in series [3]; 1.52e-06 M in series [4] (72 h incubation); 258 nM in [6]; greater than 33 µM in series [7]; 2.59e-06 M in series [8]. In addition, the EC50 in series [2] and in series [5] was greater than 33 µM in each case.

The record behind these values is patent US10981932B2, “Macrocyclic indole derivatives” (Bayer Aktiengesellschaft, priority 2016, dated 2021).
